Measurements: US11224223B2, “Feeding deterrence of pests such as Hemiptera, Lepidoptera and Coleoptera” (BEDOUKIAN RESEARCH, INC., priority 2012, dated 2022)

Legend:
Type in all cases: in vivo
Dermestid spp. = assay: Dermestid beetle feeding damage on silk fabric; settings: 3% compound; undyed silk disks; late instar larvae; 1 week
Method: Dermestid Beetle Feeding Damage on Silk Fabric
For feeding assays, 3% alcohol solutions of the tested compounds are prepared. Disks (4.0 cm in diameter) of undyed silk fabric are dipped in the test solutions or alcohol alone as a control. After the complete evaporation of the solvent, the disks are offered to 10 late instar larvae. All dishes are placed in an incubator. Four replicates are used for each chemical. After 1 week, the remaining uneaten area of each silk disk is measured using a scanner and software. The selective antifeeding rate (%) formula is [(C−T)/(C+T)]×100, and the non-selective antifeeding rate (%) formula is [(C−T)/C)]×100, where C and T are the areas consumed by the control and treated silk disks, respectively.

Popillia japonica = assay: Japanese beetle feeding damage on basil; settings: 3% compound; basil leaf disks; adult beetle; 24 h
Method: (§1) Japanese Beetle Feeding Damage on Basil For choice feeding assays, 3% alcohol solutions of the tested compounds are prepared. Disks (4.0 cm in diameter) are cut from basil leaves and are dipped in the test solutions or alcohol alone as a control. After the complete evaporation of the solvent, the disks are offered to 1 adult beetle. All dishes are placed in an incubator. Four replicates are used for each chemical. After 24 h, the remaining uneaten area of each basil leaf disk is measured using a scanner and software. The selective antifeeding rate (%) formula is [(C−T)/(C+T)]×100, and the non-selective antifeeding rate (%) formula is [(C−T)/C)]×100, where C and T are the areas consumed by the control and treated leaf disks, respectively.

Aphis gossypii = assay: Melon aphid repellency on leaf choice assays; settings: 3% compound in a Triton X:Water solution; n=100; control 50/50
From the text: Melon Aphid Repellency on Leaf Choice Assays Aphis gossypii are maintained on squash plants. Individual aphids (n=100) are given the choice between leaves with and without repellent treatments. A separate group of aphids are given a choice between untreated vs. untreated leaves as a control. The number of aphids choosing each leaf is counted both choice tests. The number of aphids choosing each treatment is compared to the control to determine the repellent effect.

Codling Moth larvae = assay: Repellency as feeding deterrence and mortality in Codling Moth larvae on treated media; settings: compound at 3.5% in a 57% Ethanol:43% water solution; for Repellency at 24 hours: first instar larva, control 8%
Method: Another test was designed to measure the repellency as feeding deterrence in Codling Moth larvae. The treatment was applied to the surface of a proprietary laboratory media in a tray with wells for each compound. The media was allowed to dry for 30-60 minutes so that larvae were not exposed to it as a liquid. One first instar codling moth larva was then placed on the treated media. The cover film was placed on the tray to prevent escapes. Ten additional replicates treated with a 57% ethanol solution were prepared to serve as controls. […] After the 24 hour reading, the larvae were extracted from the media to record any mortality.
Mortality observations were also made for the above protocol. The control was the 57% ethanol:43% water solution.

[1] = tested on: Euschistus heros-Neotropical Brown Stink Bugs; assay: Stink bug feeding damage on soybean pods; settings: 3% compound, soybean plants at R6 stage, 48 hours
Method: To compare the feeding/resting preference of stink bug adults for different plant parts, 10 pots with soybean plants at the R6 (pod-filling) stage of development are used. 5 pots of soybeans are sprayed with 3% of treatment in a 2% Triton X:water solution and 5 pots of soybean are treated with 2% Triton X:water solution as controls. Thirty stink bugs are placed individually in each cage and allowed to feed for 48 hours. Insects are removed and plant parts are collected for visual analysis of damage. Feeding damage on the pods is counted for both treatments. The selective antifeeding rate (%) formula is [(C−T)/(C+T)]×100, and the non-selective antifeeding rate (%) formula is [(C−T)/C)]×100, where C and T are the numbers of feeding damages on the control and treated plant pods, respectively.

[2] = tested on: Leptinotarsa decemlineata-Colorado Potatoe Beetles; assay: Choice feeding assay on potato leaf disks; settings: 3% compound, larvae, 24 h
Method: as §1, with “For” for “Japanese Beetle Feeding Damage on Basil For”, “potato” for “basil”, “10 larvae. Control and treated disks are placed at alternate corners in Petri dishes (150 by 20 mm) lined with moistened filter paper (choice test).” for “1 adult beetle.”, “replicates and 40 larva” for “replicates”, “chemical. In each replicate, the insects are allowed to feed ad libitum for 24 h at 24 C under a 16:8 (L:D) photoperiod.” for “chemical.”

granary weevils = assay: Granary weevil test on treated wheat kernels; settings: 5% in isopropyl alcohol, 3 week period
Method: Ten replicates of 30 kernels of wheat were immersed into the test compound and allowed to dry for 24 hours. The grains were then transferred to a test container, and 10 granary weevils were released. Test containers were secured and left for a 3 week period. At the end of this time, the wheat grains were examined for developing larvae and damage by larvae. […] Ten additional replicates treated with isopropyl alcohol were prepared to serve as controls.

Plodia interpunctella = assay: Feeding repellent assay for Indian meal moth larva on treated rice; settings: 10% compound in a 5% Ethanol:95% water solution, third instar larvae, 1 week
Method: Feeding Repellent Assay for Indian Meal Moth Larva One gram of rice is weighed and treated with 2% by weight of each test chemical or ethanol as a control for each treatment and replicate. The grains are allowed to dry and then weighed again. Treated or control rice grains are placed in a petri dish. Third instar larvae are starved for 8 h and gently introduced into the center of each compartment. 20 larva are screened per treatment, and each experiment is repeated three times. The weight of rice grains is measured again after 1 week. The selective antifeeding rate (%) formula is [(C−T)/(C+T)]×100, and the non-selective antifeeding rate (%) formula is [(C−T)/C)]×100, where C and T are the areas consumed by the control and treated leaf disks, respectively.

saw tooth grain beetles = assay: Repellency of test compounds on grain beetles, treated corn kernels; settings: 5% in isopropyl alcohol, 3 week period
Method: Ten replicates of 30 kernels of corn are immersed into the test compound and allowed to dry for 24 hours. The kernels are then transferred to a test container, and 10 saw tooth grain beetles are released. Test containers are secured and left for a 3 week period. At the end of this time, the […] grains are examined for feeding damage. […] Ten additional replicates treated with isopropyl alcohol are prepared to serve as controls.

SMILES	% Repellency (Dermestid spp.) [%]	% Repellency (Popillia japonica) [%]	Number of Aphids Choosing each Treatment: Treated (Aphis gossypii)	Number of Aphids Choosing each Treatment: Untreated (Aphis gossypii)	Increased Mortality over Control Mortality at 24 hours (Codling Moth larvae) [%]	Repellency at 24 hours (Codling Moth larvae) [%]	% Antifeedent Activity [1] [%]	% Repellency [2] [%]	Increased Repellency vs. Control Repellency (granary weevils) [%]	% Antifeedent Activity (Plodia interpunctella) [%]	Increased Repellency vs. Control Repellency (saw tooth grain beetles) [%]
CC/C(C)=C/CC/C(C)=C/CC1CCCC1=O (stereo not shown) [Methyl Apritone]	15	15	30	70	95	100	60	15	11	70	10
CCCCCC1C(=O)CCC1CC(=O)OCCC (stereo not shown) [Propyl Dihydrojasmonate]	15	15	30	70	18	59	100	15	8	60	10
